Measurements from US6534524B1, “Indazole compounds and pharmaceutical compositions for inhibiting protein kinases, and methods for their use” (Agouron Pharmaceuticals, Inc., priority 1999, dated 2003).
Read-outs that look alike come from different tables or passages of the source. Blank lines part the entries; values can stand above or below the molecule they belong to.

Tests used:
[1] = target: unphosphorylated VEGF-R2Δ50 (FLVK) (Homo sapiens, UniProt P35968, DEL940-989/E990V); test: VEGF-R2 coupled spectrophotometric assay, unphosphorylated VEGF-R2Δ50 (FLVK); settings: FLVK Ki, Table 1
[2] = Determination of inhibitor concentration in mouse plasma after intraperitoneal and oral dosing; assay type: in vivo
Procedure: Blood collection was via ocular bleed at 0.5, 1, 4 hr with the final time point, 7 hour, via intracardiac puncture. The blood was centrifuged to collect plasma, which was then stored at −80° C. until analysis. Samples were prepared for analysis using an internal standard and sodium hydroxide. After vortexing, ethyl acetate was added and mixed for 15-20 minutes at ambient temperature. […] The samples were then analyzed via HPLC or LC-MS. Compound levels were quantitated by generating a standard curve of known compound concentration in mouse plasma.

[3] = test system: human umbilical vein endothelial cells (HUVEC); test: HUVEC proliferation assay (VEGF-stimulated, MTT); assay type: cell-based; settings: Homo sapiens, HUVEC, + albumin; read-out: HUVEC + albumin IC50
[4] = IP, 25 mg/kg, vehicle PEG400:H2O pH 2.3 60:40
[5] = PO, 50 mg/kg, vehicle PEG400:H2O pH 2.3 60:40
[6] = IP, 25 mg/kg, vehicle PEG400:H2O pH 2.3 30:70
[7] = PO, 50 mg/kg, vehicle PEG400:H2O pH 2.3 30:70
[8] = PO, 25 mg/kg, vehicle PEG400:H2O pH 2.3 30:70
[9] = female, PO, 25 mg/kg, vehicle PEG400:H2O pH 2.3 30:70, read-out: Cmin (7 hr conc.)
[10] = female, PO, 8 mg/kg, vehicle 0.5% CMC
[11] = female, PO, 8 mg/kg, vehicle 0.5% CMC, read-out: Cmax
[12] = female, PO, 8 mg/kg, vehicle 0.5% CMC, read-out: Cmin (7 hr conc.)
[13] = female, PO, 25 mg/kg, vehicle 0.5% CMC
[14] = female, PO, 25 mg/kg, vehicle 0.5% CMC, read-out: Cmax
[15] = female, PO, 25 mg/kg, vehicle 0.5% CMC, read-out: Cmin (7 hr conc.)
[16] = female, PO, 40 mg/kg, vehicle 0.5% CMC
[17] = female, PO, 40 mg/kg, vehicle 0.5% CMC, read-out: Cmax
[18] = female, PO, 40 mg/kg, vehicle 0.5% CMC, read-out: Cmin (7 hr conc.)
[19] = female, PO, 200 mg/kg, vehicle 0.5% CMC
[20] = female, PO, 200 mg/kg, vehicle 0.5% CMC, read-out: Cmax
[21] = female, PO, 200 mg/kg, vehicle 0.5% CMC, read-out: Cmin (7 hr conc.)

unphosphorylated VEGF-R2Δ50 (FLVK), sequence (P35968 with tags, fused parts or gaps DEL940-989/E990V limits assumed): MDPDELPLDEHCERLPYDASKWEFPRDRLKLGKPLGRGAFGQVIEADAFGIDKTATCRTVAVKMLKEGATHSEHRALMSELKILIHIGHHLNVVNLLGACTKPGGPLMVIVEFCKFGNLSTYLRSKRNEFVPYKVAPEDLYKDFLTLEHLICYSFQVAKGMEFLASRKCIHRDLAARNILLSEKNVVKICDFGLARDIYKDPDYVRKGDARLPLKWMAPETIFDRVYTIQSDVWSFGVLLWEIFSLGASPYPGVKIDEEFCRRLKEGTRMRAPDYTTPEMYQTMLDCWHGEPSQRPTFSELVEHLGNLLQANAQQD

SMILES: COc1cc(-c2ccc3c(-c4cc5ccccc5[nH]4)n[nH]c3c2)ccc1O [Example 2(d), 3-(1H-Indol-2-yl)-6-(3-methoxy-4-hydroxy-phenyl)-1H-indazole]
Ki [1]: 3.7 nM

SMILES: Oc1ccc(-c2ccc3c(-c4cc5ccccc5o4)n[nH]c3c2)cc1OCc1ccccc1 [Example 2(e), 3-(Benzofuran-2-yl)-6-(3-benzyloxy-4-hydroxy-phenyl)-1H-indazole]
Ki [1]: 40 nM

SMILES: Cc1cnc(C(=O)Nc2cccc(Oc3ccc4c(/C=C/c5ccccc5)n[nH]c4c3)c2)s1 [Example 5(a), 5-Methyl-thiazole-2-carboxylic Acid {3-(3-Styryl-1H-indazol-6-yloxy)-phenyl]-amide]
Ki [1]: 0.03 nM

SMILES: COCOc1ccc(Oc2ccc3c(/C=C/c4ccccc4)n[nH]c3c2)cc1 [Example 8(b), 3-(E-Styryl)-6-[4-(methoxymethoxy)phenoxy]-1H-indazole]
Ki [1]: 72 nM

SMILES: Oc1ccc(Oc2ccc3c(/C=C/c4ccccc4)n[nH]c3c2)cc1 [Example 9(b), 3-(E-Styryl)-6-[4-hydroxyphenoxy]-1H-indazole]
Ki [1]: 24 nM

SMILES: Cc1ccc2cc(NC(=O)c3ccccc3Sc3ccc4c(/C=C/c5ccccn5)n[nH]c4c3)ccc2n1 [Example 33(b)]
AUClast [2, 4]: 11245 ng·h/mL | Cmax [2, 4]: 1990 ng/mL | plasma half-life (T1/2) [2, 4]: 3.0 h | AUClast [2, 5]: 3925 ng·h/mL | Cmax [2, 5]: 1496 ng/mL | plasma half-life (T1/2) [2, 5]: 3.0 h | concentration at 7 h ([2]; female, IP, 25 mg/kg, vehicle PEG400:H2O pH 2.3 60:40, read-out: Cmin (7 hr conc.)): 902 ng/mL | concentration at 7 h ([2]; female, PO, 50 mg/kg, vehicle PEG400:H2O pH 2.3 60:40, read-out: Cmin (7 hr conc.)): 76 ng/mL

AUClast [2, 6]: 2840 ng·h/mL | plasma half-life (T1/2) [2, 6]: 0.8 h | AUClast [2, 7]: 4048 ng·h/mL | plasma half-life (T1/2) [2, 7]: 0.8 h | concentration at 7 h ([2]; female, IP, 25 mg/kg, vehicle PEG400:H2O pH 2.3 30:70, read-out: Cmin (7 hr conc.)): 12 ng/mL | concentration at 7 h ([2]; female, PO, 50 mg/kg, vehicle PEG400:H2O pH 2.3 30:70, read-out: Cmin (7 hr conc.)): 13 ng/mL
SMILES: CC(C)NC(=O)c1ccccc1Sc1ccc2c(/C=C/c3ccccn3)n[nH]c2c1 [Example 35(b), 6-[2-(i-Propylcarbamoyl)phenylsulfanyl]-3-E-[2-(pyridin-2-yl)ethenyl]-1H-indazole]

AUClast [2, 8]: 292 ng·h/mL | plasma half-life (T1/2) [2, 8]: 1.7 h | concentration at 7 h [2, 9]: 5 ng/mL
SMILES: O=C(NCCc1cccs1)c1ccccc1Sc1ccc2c(/C=C/c3ccccn3)n[nH]c2c1 [Example 35(hh), 6-[2-(2-(Thien-2-yl)ethylcarbamoyl)phenylsulfanyl]-3-E-[2-(pyridin-2-yl)ethenyl]-1H-indazole]

SMILES: CN(O)C(=O)c1ccccc1Sc1ccc2c(/C=C/c3ccccn3)n[nH]c2c1 [Example 35(o), 6-[2-(N-Hydroxy-N-methylcarbamoyl)phenylsulfanyl]-3-E-[2-(pyridin-2-yl)ethenyl]-1H-indazole]
AUClast [2, 8]: 683 ng·h/mL | Cmax [2, 8]: 486 ng/mL | plasma half-life (T1/2) [2, 8]: 1.0 h | concentration at 7 h [2, 9]: 3 ng/mL | IC50 [3]: > 100 nM

SMILES: O=C(NCc1ccncc1)c1ccccc1Sc1ccc2c(/C=C/c3ccccn3)n[nH]c2c1 [Example 35(p), 6-[2-((Pyrid-4-yl)methylcarbamoyl)phenylsulfanyl]-3-E-[2-(pyridin-2-yl)ethenyl]-1H-indazole]
AUClast [2, 8]: 1435 ng·h/mL | plasma half-life (T1/2) [2, 8]: 1.3 h | concentration at 7 h [2, 9]: 5 ng/mL | IC50 [3]: > 30 nM

SMILES: Cc1cc(C(=O)Nc2cc(C(=O)c3ccc4c(/C=C/c5ccccn5)n[nH]c4c3)ccc2C)n(C)n1 [Example 41(hh), 6-[3-((1,3-Dimethyl-1H-pyrazol-5-yl)carboxaindo)-4-methylbenzoyl]-3-E-[2-(pyridin-2-yl)ethenyl]-1H-indazole]
AUClast [2, 8]: 5601 ng·h/mL | Cmax [2, 8]: 1526 ng/mL | plasma half-life (T1/2) [2, 8]: 7.9 h | concentration at 7 h [2, 9]: 405 ng/mL

plasma half-life (T1/2) [2, 8]: 5.2 h | AUC(0-t) ([2]; female, IP, 25 mg/kg, vehicle PEG400:H2O pH 2.3 30:70): > 27000 ng·h/mL
SMILES: Cc1cc(C(=O)Nc2cccc(C(=O)c3ccc4c(/C=C/c5ccccn5)n[nH]c4c3)c2)cc(Cl)n1 [Example 41(q), 6-[3-((2-Chloro-6-methylpyridin-4-yl)carboxanlido)benzoyl]-3-E-[2-(pyridin-2-yl)ethenyl]-1H-indazole]

AUClast [2, 8]: 10949 ng·h/mL | plasma half-life (T1/2) [2, 8]: 4.4 h | concentration at 7 h [2, 9]: 749 ng/mL
SMILES: CCc1cc(C(=O)Nc2cccc(C(=O)c3ccc4c(/C=C/c5ccccn5)n[nH]c4c3)c2)n(C)n1 [Example 41(v), 6-[3-((3-Ethyl-1-methyl-1H-pyrazol-5-yl)carboxamido)benzoyl]-3-E-[2-(pyridin-2-yl)ethenyl]-1H-indazole]

AUClast [2, 8]: Blq | Cmax [2, 8]: Blq | Cmin (7 hr conc.) [2, 8]: blq | plasma half-life (T1/2) [2, 8]: blq
SMILES: CC(C)COC(=O)Nc1cccc(C(=O)c2ccc3c(/C=C/c4ccccn4)n[nH]c3c2)c1 [Example 41(y)]

SMILES: Cc1cc(C(=O)Nc2cc(Nc3ccc4c(/C=C/c5ccccn5)n[nH]c4c3)c(F)cc2C)n(C)n1 [Example 48(b), 6N-(5-((1,3-Dimethyl-1H-pyrazol-5-yl)carboxanddo)-2-fluoro-4-methylphenyl)aminol-3-E-[2-(pyridin-2-yl)ethenyl]-1H-indazole]
AUClast [2, 8]: 2191 ng·h/mL | plasma half-life (T1/2) [2, 8]: 4 h | concentration at 7 h [2, 9]: 136 ng/mL | IC50 [3]: ~8 nM

SMILES: Cc1cc(C(=O)Nc2cc(Nc3ccc4c(/C=C/c5ccccn5)n[nH]c4c3)ccc2C)n(C)n1 [Example 49(b), 6-[N-(3-((1,3-Dimethyl-1H-pyrazol-5-yl)carboxamido)-4-methylphenyl)amino]-3-E-[2-(pyridin-2-yl)ethenyl]-1H-indazole]
AUClast [2, 8]: 33750 ng·h/mL | Cmax [2, 8]: 5000 ng/mL | concentration at 7 h [2, 9]: 5000 ng/mL | IC50 [3]: ~10 nM

SMILES: CCn1nc(C)cc1C(=O)Nc1cccc(C(=O)c2ccc3c(/C=C/c4ccccn4)n[nH]c3c2)c1.Cl [Example 59(a), 6-[3-((1-Ethyl-3-methyl-1H-pyrazol-5-yl)carboxamido)benzoyl]-3-E-[2-(pyridin-2-yl)ethenyl]-1H-indazole Hydrochloride]
plasma half-life (T1/2) ([2]; PO, 8 mg/kg, vehicle 0.5% CMC): 1.5 h | plasma half-life (T1/2) ([2]; PO, 40 mg/kg, vehicle 0.5% CMC): 2.4 h | plasma half-life (T1/2) ([2]; PO, 200 mg/kg, vehicle 0.5% CMC): 9.4 h | AUC(0-t) [2, 10]: 7710 ng·h/mL | Cmax [2, 11]: 2490 ng/mL | concentration at 7 h [2, 12]: 122 ng/mL | AUC(0-t) [2, 13]: 50800 ng·h/mL | Cmax [2, 14]: 15900 ng/mL | concentration at 7 h [2, 15]: 1200 ng/mL | AUC(0-t) [2, 16]: 57200 ng·h/mL | Cmax [2, 17]: 13800 ng/mL | concentration at 7 h [2, 18]: 1880 ng/mL | AUC(0-t) [2, 19]: 156000 ng·h/mL | Cmax [2, 20]: 30000 ng/mL | concentration at 7 h [2, 21]: 12100 ng/mL

SMILES: Cc1cc(C(=O)Nc2cccc(C(=O)c3ccc4c(/C=C/c5ccccn5)n[nH]c4c3)c2)n(C)n1.Cl [Example 59(b), 6-[3-((1,3-Dimethyl-1H-pyrazol-5-yl)carboxamido)benzoyl]-3-E-[2-(pyridin-2-yl)ethenyl]-1H-indazole Hydrochloride]
AUC(0-t) ([2]; female, PO, 50 mg/kg, vehicle CMC): 276000 ng·h/mL | concentration at 7 hr ([2]; female, PO, 50 mg/kg, vehicle CMC, read-out: Cmin (7 hr conc.)): 26900 ng/mL

SMILES: CCn1nc(C)cc1C(=O)Nc1cc(Nc2ccc3c(/C=C/c4ccccn4)n[nH]c3c2)c(F)cc1C.Cl [Example 59(c), 6-[N-(5-((1-Ethyl-3-methyl-1H-pyrazol-5-yl)carboxamido)-2-fluoro-4-methylphenyl)amino]-3-E-[2-(pyridin-2-yl)ethenyl]-1H-indazole Hydrochloride]
AUC(0-t) ([2]; female, PO, 25 mg/kg, vehicle CMC): 327000 ng·h/mL | Cmax ([2]; female, PO, 25 mg/kg, vehicle CMC, read-out: Cmax): 50000 ng/mL

SMILES: Cc1cc(C(=O)Nc2cc(Nc3ccc4c(/C=C/c5ccccn5)n[nH]c4c3)ccc2F)n(C)n1.Cl [Example 59(d), 6-[N-(3-((1,3-Dimethyl-1H-pyrazol-5-yl)carboxamido)4-fluoro-phenyl)amino]-3-E-[2-(pyridin-2-yl)ethenyl]-1H-indazole Hydrochloride]
AUC(0-t) [2, 10]: > 24700 ng·h/mL | Cmax [2, 11]: > 5000 ng/mL | concentration at 7 h [2, 12]: 1900 ng/mL | AUC(0-t) [2, 16]: > 32300 ng·h/mL | Cmax [2, 17]: > 5000 ng/mL | concentration at 7 h [2, 18]: 4140 ng/mL | AUC(0-t) [2, 19]: > 123000 ng·h/mL | Cmax [2, 20]: > 20000 ng/mL | concentration at 7 h [2, 21]: 12700 ng/mL

SMILES: CCn1nc(C)cc1C(=O)Nc1cccc(Oc2ccc3c(/C=C/c4ccccn4)n[nH]c3c2)c1.Cl [Example 59(e), 6-[3-((1-Ethyl-3-methyl-1H-pyrazol-5-yl)carboxamido)phenoxy]-3-E-[2-(pyridin-2-yl)ethenyl]-1H-indazole Hydrochloride]
plasma half-life (T1/2) ([2]; PO, 25 mg/kg, vehicle 0.5% CMC): 21 h | AUC(0-t) [2, 13]: 12500 ng·h/mL | Cmax [2, 14]: 28800 ng/mL | concentration at 7 h [2, 15]: 2140 ng/mL
